Species on record: Rattus norvegicus
Test: DrugMatrix - Regimen: Daily Repeat
Type: toxicity, organism-based, Sprague-Dawley
Parameters: regimen Daily Repeat, gender Male, age 6-8 weeks
Details: in vivo, po, route oral GAVAGE, vehicle 100 % WATER; for ABSOLUTE BASOPHIL / ABSOLUTE EOSINOPHIL / ABSOLUTE LYMPHOCYTE / ABSOLUTE MONOCYTE / ABSOLUTE SEGMENTED NEUTROPHIL / BASOPHIL / EOSINOPHIL / ERYTHROCYTE COUNT / HEMATOCRIT / HEMOGLOBIN / LEUKOCYTE COUNT / LYMPHOCYTE / MEAN CORPUSCULAR HEMOGLOBIN / MEAN CORPUSCULAR HEMOGLOBIN CONCENTRATION / MEAN CORPUSCULAR VOLUME / MONOCYTE / NEUTROPHIL / NUCLEATED RED BLOOD CELLS / PLATELET COUNT: tissue Blood; for ALANINE AMINOTRANSFERASE / ALBUMIN / ALKALINE PHOSPHATASE / ASPARTATE AMINOTRANSFERASE / BLOOD UREA NITROGEN / CARBON DIOXIDE / CHLORIDE / CHOLESTEROL / CREATINE PHOSPHOKINASE / CREATININE / GLUCOSE / LACTATE DEHYDROGENASE / LIPASE / PHOSPHORUS / POTASSIUM / SODIUM / TOTAL BILIRUBIN / TOTAL PROTEIN / URIC ACID: tissue Plasma
[1] = 0 mg/kg, 72 h, dose level Control, time 3 day
[2] = 0 mg/kg, 120 h, dose level Control, time 5 day
[3] = 900 mg/kg, 72 h, dose level Low, time 3 day

## Clc1ccc(C(c2ccccc2Cl)C(Cl)Cl)cc1 (centres undefined) [MITOTANE]
[1]
  ABSOLUTE BASOPHIL: 0 CELLS/uL
  ABSOLUTE EOSINOPHIL: 58.83 CELLS/uL
  ABSOLUTE LYMPHOCYTE: 11823.5 CELLS/uL
  ABSOLUTE MONOCYTE: 169 CELLS/uL
  ABSOLUTE SEGMENTED NEUTROPHIL: 815.33 CELLS/uL
  BASOPHIL: 0%
  EOSINOPHIL: 0.5%
  ERYTHROCYTE COUNT: 5.52 x10E6/uL
  HEMATOCRIT: 35.77%
  HEMOGLOBIN: 14.28 G/DL
  LEUKOCYTE COUNT: 12.87 x10E3/uL
  LYMPHOCYTE: 91.67%
  MEAN CORPUSCULAR HEMOGLOBIN: 25.92 pg
  MEAN CORPUSCULAR HEMOGLOBIN CONCENTRATION: 39.95 G/DL
  MEAN CORPUSCULAR VOLUME: 64.85 fL
  MONOCYTE: 1.33%
  NEUTROPHIL: 6.5%
  NUCLEATED RED BLOOD CELLS: 0 /100WBC
  PLATELET COUNT: 1246.17 x10E3/uL
  ALANINE AMINOTRANSFERASE: 66 u/L
  ALBUMIN: 4.25 G/DL
  ALKALINE PHOSPHATASE: 416 u/L
  ASPARTATE AMINOTRANSFERASE: 106.17 u/L
  BLOOD UREA NITROGEN: 12.67 mg/dL
  CARBON DIOXIDE: 31.83 mmol/L
  CHLORIDE: 102.5 MEQ/L
  CHOLESTEROL: 69 mg/dL
  CREATINE PHOSPHOKINASE: 601.83 u/L
  CREATININE: 0.18 mg/dL
  GLUCOSE: 154.5 mg/dL
  LACTATE DEHYDROGENASE: 301.83 u/L
  LIPASE: 11.17 u/L
  PHOSPHORUS: 12.08 mg/dL
  POTASSIUM: 6.12 MEQ/L
  SODIUM: 145.2 MEQ/L
  TOTAL BILIRUBIN: 0.17 mg/dL
  TOTAL PROTEIN: 6.1 G/DL
  URIC ACID: 1.57 mg/dL
[2]
  ABSOLUTE BASOPHIL: 0 CELLS/uL
  ABSOLUTE EOSINOPHIL: 19.33 CELLS/uL
  ABSOLUTE LYMPHOCYTE: 12577.83 CELLS/uL
  ABSOLUTE MONOCYTE: 106.33 CELLS/uL
  ABSOLUTE SEGMENTED NEUTROPHIL: 896.5 CELLS/uL
  BASOPHIL: 0%
  EOSINOPHIL: 0.17%
  ERYTHROCYTE COUNT: 5.84 x10E6/uL
  HEMATOCRIT: 36.88%
  HEMOGLOBIN: 14.48 G/DL
  LEUKOCYTE COUNT: 13.6 x10E3/uL
  LYMPHOCYTE: 92.17%
  MEAN CORPUSCULAR HEMOGLOBIN: 24.85 pg
  MEAN CORPUSCULAR HEMOGLOBIN CONCENTRATION: 39.3 G/DL
  MEAN CORPUSCULAR VOLUME: 63.23 fL
  MONOCYTE: 0.83%
  NEUTROPHIL: 6.83%
  NUCLEATED RED BLOOD CELLS: 0 /100WBC
  PLATELET COUNT: 1223.5 x10E3/uL
  ALANINE AMINOTRANSFERASE: 55.33 u/L
  ALBUMIN: 4.08 G/DL
  ALKALINE PHOSPHATASE: 355.5 u/L
  ASPARTATE AMINOTRANSFERASE: 87.67 u/L
  BLOOD UREA NITROGEN: 15.33 mg/dL
  CARBON DIOXIDE: 33.83 mmol/L
  CHLORIDE: 99.67 MEQ/L
  CHOLESTEROL: 72.17 mg/dL
  CREATINE PHOSPHOKINASE: 268.33 u/L
  CREATININE: 0.15 mg/dL
  GLUCOSE: 152.5 mg/dL
  LACTATE DEHYDROGENASE: 212.67 u/L
  LIPASE: 10.83 u/L
  PHOSPHORUS: 11.65 mg/dL
  POTASSIUM: 6.73 MEQ/L
  SODIUM: 142.43 MEQ/L
  TOTAL BILIRUBIN: 0.23 mg/dL
  TOTAL PROTEIN: 6.07 G/DL
  URIC ACID: 1.7 mg/dL
[3]
  ABSOLUTE BASOPHIL: 0 CELLS/uL
  ABSOLUTE EOSINOPHIL: 0 CELLS/uL
  ABSOLUTE LYMPHOCYTE: 16524 CELLS/uL
  ABSOLUTE MONOCYTE: 175 CELLS/uL
  ABSOLUTE SEGMENTED NEUTROPHIL: 1001 CELLS/uL
  BASOPHIL: 0%
  EOSINOPHIL: 0%
  ERYTHROCYTE COUNT: 5.49 x10E6/uL
  HEMATOCRIT: 34.53%
  HEMOGLOBIN: 13.73 G/DL
  LEUKOCYTE COUNT: 17.7 x10E3/uL
  LYMPHOCYTE: 93.33%
  MEAN CORPUSCULAR HEMOGLOBIN: 25.03 pg
  MEAN CORPUSCULAR HEMOGLOBIN CONCENTRATION: 39.8 G/DL
  MEAN CORPUSCULAR VOLUME: 62.9 fL
  MONOCYTE: 1%
  NEUTROPHIL: 5.67%
  NUCLEATED RED BLOOD CELLS: 0 /100WBC
  PLATELET COUNT: 1289.67 x10E3/uL
  ALANINE AMINOTRANSFERASE: 54 u/L
  ALBUMIN: 4.23 G/DL
  ALKALINE PHOSPHATASE: 331.33 u/L
  ASPARTATE AMINOTRANSFERASE: 74.67 u/L
  BLOOD UREA NITROGEN: 13 mg/dL
  CARBON DIOXIDE: 33.67 mmol/L
  CHLORIDE: 101.67 MEQ/L
  CHOLESTEROL: 70.33 mg/dL
  CREATINE PHOSPHOKINASE: 271 u/L
  CREATININE: 0.45 mg/dL
  GLUCOSE: 144.67 mg/dL
  LACTATE DEHYDROGENASE: 135 u/L
  LIPASE: 12.67 u/L
  PHOSPHORUS: 12.8 mg/dL
  POTASSIUM: 6.89 MEQ/L
  SODIUM: 145.93 MEQ/L
  TOTAL BILIRUBIN: 0.1 mg/dL
  TOTAL PROTEIN: 6.03 G/DL
  URIC ACID: 1.6 mg/dL
